Here are results for 13 molecules from patent publication US12011432B2, “Method of modulating ribonucleotide reductase” (CASE WESTERN RESERVE UNIVERSITY, priority 2018, dated 2024).

For data set [1], the system named is Human pancreatic cancer cells (Pancl). The data set is described as follows: Cancer cell line growth inhibition assay (DNA content). The format is cell-based. The arrangement: inhibition of growth of Pancl cells: dose or concentration left out as unconfirmed. The settings on record: for IC50: Homo sapiens, Pancreatic cancer cell, 72 h, continuous exposure for three days; for IC50 / activity/potency against growth of Pancl cells (in words): DNA content per well; for inhibition of growth of Pancl cells / activity/potency against growth of Pancl cells (in words): three days. As for the experimental part: Growth inhibition assays were performed in the Translational Research Shared Resource of the Case Comprehensive Cancer Centre. Human pancreatic cancer cells (Pancl) were maintained in standard growth medium consisting of (RPMI1640+10% FBS+2 mM glutamine+100 U/mL penicillin, and […] streptomycin). Cells were monitored and shown to be negative for mycoplasma contamination using the Mycoplasma Detection kit (MycoAlert™, Lonza, Basel, Switzerland). For growth inhibition assays, cells were harvested by trypsinisation and seeded into 96-well tissue culture plates at 2500 cells/mL. The following day, triplicate wells were treated with an appropriate volume of 5x-inhibitor-containing medium. The cells were cultured for 3 additional days at 37° C. in a 5% CO2 humidified incubator. Cell growth was assessed by measuring total DNA content per well using an adaptation of the method of Labarca and Paigen.

The subject of another data set is blood progenitor cells. The settings on record: previously shown, cited from earlier work.

Turning to `O=C1Nc2ccccc2/C1=N\NC(=O)c1ccccc1O` [TP1, (E)-2-Hydroxy-N′-(2-Oxoindolin-3-Ylidene)Benzohydrazide], in data set [1], the concentration for half-maximal inhibition (IC50) was greater than 10000 nM and the “inhibition of growth of Pancl cells” value was “did not inhibit the growth”.
In turn, `O=C(N/N=C/c1cc(-c2ccccc2)ccc1O)c1ccccc1O` [TP2] gave a melting point of 273.5 to 274.9 °C. This molecule also displayed an IC50 in data set [1] of 2000 to 3000 nM.
On to `O=C(N/N=C/c1cc(-c2ccsc2)ccc1O)c1ccccc1O` [TP3, (E)-2-Hydroxy-N′-(2-Hydroxy-5-(Thiophen-3-Yl)-Benzylidene)-Benzohydrazide], for which the melting point was 282.9 to 284.6 °C. Also, the IC50 in data set [1] was 2000 to 3000 nM.
For `COc1ccc(-c2ccoc2)c(/C=N/NC(=O)c2ccccc2O)c1O` [TP4, (E)-N′-(6-(Furan-3-Yl)-2-Hydroxy-3-Methoxybenzylidene)-2-Hydroxybenzohydrazide] the same measures were 228.3 °C (dec.) and less than 1500 nM.
Molecule `COc1ccc(-c2ccccc2)c(/C=N/NC(=O)c2ccccc2O)c1O` [TP5, (E)-2-Hydroxy-N′-((3-Hydroxy-4-Methoxy-11,1′-Biphenyll-2-Yl)Methylene)-Benzohydrazide] returned a melting point of 257.9 to 259.4 °C. In data set [1], this molecule returned a 50% inhibitory concentration (IC50) of less than 1500 nM.
The molecule `COc1ccc(-c2ccsc2)c(/C=N/NC(=O)c2ccccc2O)c1O` [TP6, (E)-2-Hydroxy-N′-(2-Hydroxy-3-Methoxy-6-(Thiophen-3-Yl)Benzylidene)-Benzohydrazide] registered a melting point of 229.5 °C. In data set [1], the IC50 is less than 1500 nM and the “activity/potency against growth of Pancl cells (in words)” value is given as “greatest potency”. For the same molecule, the “decrease in IC50 over the lead compound NSAH (TP8)” value in data set [1] (Pancl cells) is on record as greater than 2 fold.
In turn, `Nc1ncnc2c1ncn2-c1ccc(/C=N/NC(=O)c2ccccc2O)cc1` [TP7, (E)-N′-(4-(6-Amino-9H-Purin-9-Yl)Benzylidene)-2-Hydroxybenzohydrazide] displayed a melting point of 229.5 °C. In addition, in data set [1], the 50% inhibitory concentration (IC50) was greater than 10000 nM and the “inhibition of growth of Pancl cells” value is given as “did not inhibit the growth”.
`O=C(N/N=C/c1c(O)ccc2ccccc12)c1ccccc1O` [TP8, (E)-2-Hydroxy-N′-((2-Hydroxynaphthalen-1-Yl)Methylene)-Benzohydrazide] displayed a melting point of 223.8 °C. In addition, the IC50 in data set [1] is less than 1500 nM. For the same molecule, in the data set on blood progenitor cells, the “effectiveness against blood progenitor cells versus cancer cell lines” value is reported as “much less effective”. Further, the “therapeutic index compared with gemcitabine” value with blood progenitor cells (same cell-cell comparison) is given as “higher therapeutic index than gemcitabine”.
With `COc1ccc(-c2cnc(-c3ccccc3O)s2)cc1` [TP9, 2-(5-(4-Methoxyphenyl)Thiazol-2-Yl)-Phenol], the melting point is 95.2 to 96.8 °C. In addition, in data set [1], the IC50 is greater than 10000 nM, the “inhibition of growth of Pancl cells” value is “did not inhibit the growth” and the “activity/potency against growth of Pancl cells (in words)” value is given as “ineffective”.
With `O=C(N/N=C/c1c(O)ccc2ccccc12)c1ccc(-n2ccccc2=O)cc1` [TP10, (E)-N′-((2-Hydroxynaphthalen-1-Yl)Methylene)-4-(2-Oxopyridin-1(2H)-Yl)-Benzohydrazide], the melting point came to 258.6 °C. Moreover, the IC50 in data set [1] fell in the range of 2000 to 3000 nM.
On to `O=C(NNC(=O)c1c(O)ccc2ccccc12)c1cccnc1` [TP11, N′-(2-Hydroxy-1-Naphthoyl)-Nicotinohydrazide], for which the melting point lay in the range of 227.1 to 228.6 °C. In data set [1], the IC50 was greater than 10000 nM and the “inhibition of growth of Pancl cells” value is recorded as “did not inhibit the growth”.
For `O=C(N/N=C/c1cccnc1)c1c(O)ccc2ccccc12` [TP12, (E)-2-Hydroxy-N′-(Pyridin-3-Ylmethylene)-1-Naphthohydrazide] the same measures were 202.8 to 204.5 °C, greater than 10000 nM and “did not inhibit the growth”.
For `O=C(NNC(=O)c1ccccc1O)c1cccnc1` [TP13, N′-(2-Hydroxybenzoyl)-Nicotinohydrazide] the same measures were 216.6 to 217.7 °C, greater than 10000 nM and “did not inhibit the growth”.
